Measurements: patent US5229362A, “Antibiotic A10255 complex and factors, and process and production therefor” (Eli Lilly and Company, priority 1991, dated 1993)

Test system: rumen-cannulated wethers
Assay: Rumen lactic acidosis in rumen-cannulated wethers switched abruptly to concentrate
Assay type: in vivo, sheep
Conditions: 60 mg/d; Day 6, 12-hr sample

CC[C@@]1([C@@H]2O[C@@H]([C@H]3O[C@@](O)(CO)[C@H](C)C[C@@H]3C)C[C@@H]2C)CC[C@H]([C@]2(C)CC[C@]3(C[C@H](O)[C@@H](C)[C@@H]([C@@H](C)[C@@H](OC)[C@H](C)C(=O)O)O3)O2)O1 [Monensin]
Rumen pH: 5.02 | Ruminal TVFA: 43.6 mM/l
